Source: paper PMC7016805, “RK-33 Is a Broad-Spectrum Antiviral Agent That Targets DEAD-Box RNA Helicase DDX3X” (Cells, 2020)

Target: T1, DEAD-box helicase 3 X-linked (DDX3X) (Homo sapiens, UniProt O00571)
T1 construct: residues 1–580, N-terminal 6His tag
Assay: ITC (one-site model); supported by multi-wavelength AUC, ATPase assay (IC50 […]) and RNA unwinding assay (IC50 […])
Type: binding

T1 sequence (O00571 1-580): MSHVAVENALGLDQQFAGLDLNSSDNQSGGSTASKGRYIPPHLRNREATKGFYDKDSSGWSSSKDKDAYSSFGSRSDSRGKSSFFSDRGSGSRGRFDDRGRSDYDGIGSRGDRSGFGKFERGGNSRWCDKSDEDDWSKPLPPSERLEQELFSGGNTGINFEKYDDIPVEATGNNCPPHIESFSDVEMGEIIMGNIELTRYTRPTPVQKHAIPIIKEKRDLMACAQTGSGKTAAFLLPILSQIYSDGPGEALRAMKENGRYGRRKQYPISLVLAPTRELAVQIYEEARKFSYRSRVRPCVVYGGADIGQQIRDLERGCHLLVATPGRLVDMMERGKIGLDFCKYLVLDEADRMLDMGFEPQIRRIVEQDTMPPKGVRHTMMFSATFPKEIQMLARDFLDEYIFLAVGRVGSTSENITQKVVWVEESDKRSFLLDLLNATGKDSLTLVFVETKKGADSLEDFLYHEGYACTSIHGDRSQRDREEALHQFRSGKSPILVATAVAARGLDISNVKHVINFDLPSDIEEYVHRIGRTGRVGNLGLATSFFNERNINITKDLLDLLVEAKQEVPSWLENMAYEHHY

COc1ccc(Cn2cnc3c4ncn(Cc5ccc(OC)cc5)c4nc(=O)nc32)cc1 [RK-33] was tested, and the Kd was 33 µM.
